The source of these data is patent US12357649B2, “Glycoalkaloid combinations and various uses thereof” (priority 2016, dated 2025).

A short description of this series: Stability of cream formulation: HPLC assay of solamargine. It is filed as physicochemical. The settings on record: cream with 5% urea, 10% salicylic, 25°C, 60% RH. The procedure: Visual appearance was conducted by comparison to standard commercially available solamargine cream composition. High-Performance Liquid Chromatography (HPLC) to determine quantity of solamargine in the cream, substantially as described in WO 2000061153 A1.

Turning to `C[C@@H]1CC[C@@]2(NC1)O[C@H]1C[C@H]3[C@@H]4CC=C5C[C@@H](O[C@@H]6O[C@H](CO)[C@@H](O[C@@H]7O[C@@H](C)[C@H](O)[C@@H](O)[C@H]7O)[C@H](O)[C@H]6O[C@@H]6O[C@@H](C)[C@H](O)[C@@H](O)[C@H]6O)CC[C@]5(C)[C@H]4CC[C@]3(C)[C@H]1[C@@H]2C` [Solamargine, (22R,25R)-spiro-5-en-3β-yl-α-L-rhamnopyranosyl-(1→2glu)-O-α-L-rhamnopyranosyl-(1→4glu)-β-D-gluco-pyranose], the “HPLC Assay Solamargine” value by setting is: (10% lactic acid, 1% Xanthan gum, 0 months) 20.6 μg/g cream; (10% lactic acid, 1% Xanthan gum, 3 months) 23.1 μg/g cream; (10% lactic acid, 1% Xanthan gum, 6 months) 19.8 μg/g cream; (10% lactic acid, 1% Xanthan gum, 9 months) 21.2 μg/g cream; (10% lactic acid, 1% Xanthan gum, 12 months) 23.1 μg/g cream; (10% lactic acid, 1% Xanthan gum, 18 months) 20.4 μg/g cream. Moreover, the “HPLC Assay Solamargine” value by setting is: (10% lactic acid, 1% Xanthan gum, 24 months) 22.1 μg/g cream; (10% lactic acid, 1% Xanthan gum, 36 months) 19.8 μg/g cream; (10% lactic acid, 1% Xanthan gum, 42 months) 19.6 μg/g cream; (10% lactic acid, 1% Xanthan gum, 48 months) 21.2 μg/g cream; (no lactic acid, no emulsion-stabilising agent, 0 months) 18.3 μg/g cream; (no lactic acid, no emulsion-stabilising agent, 3 months) 19 μg/g cream. Further, the “HPLC Assay Solamargine” value was determined as 21.1 μg/g cream (no lactic acid, no emulsion-stabilising agent, 6 months); 9.2 μg/g cream (no lactic acid, no emulsion-stabilising agent, 9 months); 7.3 μg/g cream (no lactic acid, no emulsion-stabilising agent, 12 months); 6.8 μg/g cream (no lactic acid, no emulsion-stabilising agent, 18 months); 5.1 μg/g cream (no lactic acid, no emulsion-stabilising agent, 24 months); 5.3 μg/g cream (no lactic acid, no emulsion-stabilising agent, 36 months). In addition, the “HPLC Assay Solamargine” value by setting is: (no lactic acid, no emulsion-stabilising agent, 42 months) 5.1 μg/g cream; (no lactic acid, no emulsion-stabilising agent, 48 months) 5.2 μg/g cream.
